From US9745506B2, “Treatment fluids for use in removing acid-soluble materials in subterranean formations” (Halliburton Energy Services, Inc., priority 2015, dated 2017)
Where two headings read alike, the source gives them in different places.

Assays:
[1] = cited from earlier work
[2] = 25° C.; cited from earlier work
[3] = solubility of PMIDA; format: physicochemical; settings: room temperature
Description: The solubility of the PMIDA in the MSA and the ability of both the MSA and the PMIDA to remove acid-soluble materials of the present disclosure synergistically operate to continuously remove acid-soluble materials at deeper far-field locations than traditional acid fluids, which may become spent prior to reaching such deep areas.
In the working temperature range of the treatment fluid, as described above, the PMIDA may be solubilized in the MSA of the treatment fluids described herein. In some embodiments, the PMIDA is about 5% w/v soluble at room temperature in a solution of about 70% MSA in an aqueous base fluid, described below. In other embodiments, higher w/v concentrations of PMIDA may be prepared using varied solutions of MSA alone or in combination with an aqueous base fluid, which will undergo different dissolution amounts depending on the working temperature of the treatment fluid. Each of these values is critical to the embodiments described herein and may depend on a number of factors including, but not limited to, the working temperature of the treatment fluid (e.g., the temperature or temperature range of the subterranean formation being treated), the amount of MSA in the treatment fluid relative to the PMIDA, the amount of PMIDA in the treatment fluid relative to the MSA, and the like.

| Compound | pKa ([1]; 25° C. in dimethyl sulfoxide) | pKa ([1]; 25° C. in water) | solubility in water [2] | soluble in a solution of about 70% MSA in an aqueous base fluid [3] |
| --- | --- | --- | --- | --- |
| methanesulfonic acid [MSA] | about 1.6 | −1.9 | – | – |
| O=C(O)CN(CC(=O)O)CP(=O)(O)O [PMIDA, N-(phosphonomethyl)iminodiacetic acid] | – | – | < 0.5 mg/mL | about 5 % w/v |
